According to patent publication US9035059B2, “Nitrogen-containing condensed heterocyclic compound” (TAISHO PHARMACEUTICAL CO., LTD., priority 2011, dated 2015):

target: human MGAT2 (Homo sapiens (Human), UniProt Q3SYC2); assay: Test Example 1: Test of MGAT2 inhibitory action (human MGAT2 enzyme fraction from Sf9 cells, free CoA detected by CPM fluorescence); type: biochemical; settings: human MGAT2 enzyme fraction expressed in Sf9 insect cells, 0.5 μg/ml, 2-monooleoyl glycerol 0.78 μM, oleoyl-CoA 5.3 μM, room temperature 20 min, listed as 10-7, read-out: Activity Value [nM] (IC50, concentration at which 50% of produced free CoA was inhibited)
Sequence (Q3SYC2 whole entry): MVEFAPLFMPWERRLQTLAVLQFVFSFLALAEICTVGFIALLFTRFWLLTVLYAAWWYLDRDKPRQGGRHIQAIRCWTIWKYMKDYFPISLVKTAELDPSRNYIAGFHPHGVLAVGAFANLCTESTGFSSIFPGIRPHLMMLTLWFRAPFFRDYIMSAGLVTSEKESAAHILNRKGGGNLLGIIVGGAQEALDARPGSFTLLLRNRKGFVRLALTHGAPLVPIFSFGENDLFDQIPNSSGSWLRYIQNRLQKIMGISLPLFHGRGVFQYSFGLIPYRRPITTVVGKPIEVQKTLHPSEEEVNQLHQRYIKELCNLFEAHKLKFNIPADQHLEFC
Description: The MGAT2 inhibitory action of the inventive compound was measured by the methods described in Test Examples as shown below. The MGAT enzyme activity was measured based on the amount of an indicator, free Coenzyme A (CoA) which is generated by the reaction shown below, using a sulfhydryl reactive pigment (7-diethylamino-3-(4-maleimidophenyl)-4-methylcoumarin; hereinafter, sometimes abbreviated as CPM).
A test for MGAT2 inhibitory action of test compounds was conducted in accordance with a partially modified version of the method described in John F. Lockwood et al., Am. J. Physiol. Endocrinol. Metab., 2003, 285, E927.
Bac-to-Bac Baculovirus Expression System (Life Technologies Japan) was used to express human MGAT2 in insect cells (Sf9) (Life Technologies Japan). These cells were sonicated and centrifuged at 100,000 g×1 hr to give a precipitate. The precipitate was used as a human MGAT2 enzyme fraction in this assay.
This test was conducted using a black flat-bottom 96-well plate (Corning). A buffer solution with final concentrations of 5 mM magnesium chloride, 100 mM sucrose and 100 mM Tris-HCl (pH=7.5) was prepared and test compounds prepared in various concentrations using dimethyl sulfoxide were added thereto to give a final dimethyl sulfoxide concentration of 1%. The MGAT2 enzyme fraction was added thereto to give a final concentration of 0.5 μg/ml and phosphatidylcholine, 2-monooleoyl glycerol and oleoyl-CoA were added thereto to give final concentrations of 7.5 μM, 0.78 μM and 5.3 μM, respectively, before starting a reaction. The reaction was performed at room temperature for 20 min.
After 20 min, a CPM-containing solution was added thereto to give a final concentration of 5 μM before stopping the MGAT reaction. After 1 hr, a fluorescence detector (Infinite 200 from Tecan Japan) was used to measure the CPM fluorescence value of each well (excitation 380 nm, emission 460 nm).

Row | Structure (SMILES) | IC50 [nM]
1 | CCCCCCCc1ccc(NS(=O)(=O)c2ccc3c(c2)CCN(C(C)Cc2ccc(C(C)(C)C)cc2)C3)c(F)c1 (single isomer, unassigned) [Working Example 10-7] | 31

same assay, conditions: human MGAT2 enzyme fraction expressed in Sf9 insect cells, 0.5 μg/ml, 2-monooleoyl glycerol 0.78 μM, oleoyl-CoA 5.3 μM, room temperature 20 min, listed as 10-9, read-out: Activity Value [nM] (IC50, concentration at which 50% of produced free CoA was inhibited)

Row | Structure (SMILES) | IC50 [nM]
2 | CCCCCCCCOc1ccc(NS(=O)(=O)c2ccc3c(c2)CCN(C(C)Cc2ccc(C(C)(C)C)cc2)C3)c(F)c1 (stereo not drawn) [Working Example 10-9] | 96

same assay, conditions: human MGAT2 enzyme fraction expressed in Sf9 insect cells, 0.5 μg/ml, 2-monooleoyl glycerol 0.78 μM, oleoyl-CoA 5.3 μM, room temperature 20 min, listed as 10-10, read-out: Activity Value [nM] (IC50, concentration at which 50% of produced free CoA was inhibited)

Row | Structure (SMILES) | IC50 [nM]
3 | CCCCCCCCOc1ccc(NS(=O)(=O)c2ccc3c(c2)CCN(C(C)Cc2ccc(C(C)(C)C)cc2)C3)c(F)c1 (stereo not drawn) [Working Example 10-10] | 97

same assay, conditions: human MGAT2 enzyme fraction expressed in Sf9 insect cells, 0.5 μg/ml, 2-monooleoyl glycerol 0.78 μM, oleoyl-CoA 5.3 μM, room temperature 20 min, listed as 10-11, read-out: Activity Value [nM] (IC50, concentration at which 50% of produced free CoA was inhibited)

Row | Structure (SMILES) | IC50 [nM]
4 | CC(Cc1ccc(C(C)(C)C)cc1)N1CCc2cc(S(=O)(=O)Nc3ccc(OCCCCCc4ccccc4)cc3F)ccc2C1 (single isomer, unassigned) [Working Example 10-11] | 80

same assay, conditions: human MGAT2 enzyme fraction expressed in Sf9 insect cells, 0.5 μg/ml, 2-monooleoyl glycerol 0.78 μM, oleoyl-CoA 5.3 μM, room temperature 20 min, read-out: Activity Value [nM] (IC50, concentration at which 50% of produced free CoA was inhibited)

Row | Structure (SMILES) | IC50 [nM]
5 | CC(C)(C)c1ccc(CN2CCc3cc(S(=O)(=O)Nc4ccc(OCCCc5ccccc5)cc4F)ccc3C2)cn1 [Working Example 6-26] | 218
6 | CCCCCCOc1ccc(NS(=O)(=O)c2ccc3c(c2)CCN(CCc2ccc(C(C)(C)C)nc2)C3)c(F)c1 [Working Example 6-44] | 258
7 | CC(C)(C)c1ccc(CCN2CCc3cc(S(=O)(=O)Nc4ccc(CCCCCc5ccccc5)cc4F)ccc3C2)cc1 [Working Example 6-28] | 53
8 | CCCCCCOc1ccc(NS(=O)(=O)c2ccc3c(c2)CCN(CCc2cnc(C(C)(C)C)cn2)C3)c(F)c1 [Working Example 9-20] | 212
9 | CC(C)(C)[C@H]1CC[C@@H](C(=O)N2CCc3cc(S(=O)(=O)Nc4ccc(CCCC5CCCC5)cc4F)ccc3C2)CC1 [Working Example 1-7] | 292
10 | CCCCCCCCN1CCc2cc(S(=O)(=O)Nc3ccc(OCCCCCC)cc3F)ccc2C1 [Working Example 6-36] | 253
11 | CC(c1ccc(C(C)(C)C)cc1)N1CCc2cc(S(=O)(=O)Nc3ccc(OCCCc4ccccc4)cc3F)ccc2C1 (stereo not drawn) [Working Example 11-3] | 116
12 | CCCCCCCc1ccc(NS(=O)(=O)c2ccc3c(c2)CCN(CCc2ccc(C(C)(C)C)cc2)C3)c(F)c1 [Working Example 6-18] | 35
13 | C/C=C\CCCOc1ccc(NS(=O)(=O)c2ccc3c(c2)CN(C(=O)Nc2ccc(C(C)(C)C)cc2)C3)c(F)c1 [19-11] | 128
14 | CCCCCCOc1ccc(NS(=O)(=O)c2ccc3c(c2)CCN(CCc2ncc(C(C)(C)C)cn2)C3)c(F)c1 [Working Example 9-21] | 164
15 | CC(C)(C)c1ccc(NC(=O)N2Cc3ccc(S(=O)(=O)Nc4ccc(OCCOc5cccc(C(F)(F)F)c5)cc4F)cc3C2)cc1 [18-21] | 59
16 | COc1cc(F)ccc1NS(=O)(=O)c1ccc2c(c1)CN(C(=O)Nc1ccc(C(C)(C)C)cc1)C2 [14-9] | 168
17 | CC(C)(C)[C@H]1CC[C@H](C(=O)N2CCc3cc(S(=O)(=O)Nc4ccc(CCCC5CCCC5)cc4F)ccc3C2)CC1 [Working Example 1-6] | 88
18 | O=S(=O)(Nc1ccc(CCCC2CCCC2)cc1F)c1ccc2c(c1)CCN(CCCC(F)(F)F)C2 [Working Example 7-54] | 162
19 | O=S(=O)(Nc1ccc(CCCC2CCCC2)cc1F)c1ccc2c(c1)CCN(CCc1ccc(OC(F)(F)F)cc1)C2 [22-2] | 256
20 | O=S(=O)(Nc1ccc(CCCC2CCCC2)cc1F)c1ccc2c(c1)CCN(Cc1cnc(C(F)(F)F)nc1)C2 [Working Example 6-78] | 228
21 | CC(C)(C)c1ccc(CCN2CCc3cc(S(=O)(=O)Nc4ccc(CCCC5CCCC5)cc4F)ccc3C2)cc1 [Working Example 6-17] | 28
22 | CCCCCOc1ccc(NS(=O)(=O)c2ccc3c(c2)CN(C(=O)Nc2ccc(C(C)(C)C)cc2)C3)c(F)c1 [14-18] | 147
23 | O=S(=O)(Nc1ccc(CCCC2CCCC2)cc1F)c1ccc2c(c1)CCN(Cc1ccc(C(F)(F)F)nc1)C2 [Working Example 6-54] | 180
24 | CC(C)CCCOc1ccc(NS(=O)(=O)c2ccc3c(c2)CN(C(=O)Nc2ccc(C(C)(C)C)cc2)C3)c(F)c1 [19-7] | 99
25 | CC(C)(C)c1ccc(NC(=O)N2Cc3ccc(S(=O)(=O)Nc4ccc(OCCCC5CCCC5)cc4F)cc3C2)cc1 [19-3] | 4
26 | CC(C)(C)c1ccc(NC(=O)N2Cc3ccc(S(=O)(=O)Nc4ccc(OCCCCc5ccccc5)cc4F)cc3C2)cc1 [19-2] | 30

Row | Structure (SMILES) | IC50 [nM]
27 | CCCCCCCCOc1ccc(NS(=O)(=O)c2ccc3c(c2)CCN(Cc2ccc(C(C)(C)C)nc2)C3)c(F)c1 [Working Example 6-33] | 26
28 | CC(C)(C)c1ccc(NC(=O)N2Cc3ccc(S(=O)(=O)Nc4ccc(OCCCC(F)(F)F)cc4F)cc3C2)cc1 [18-26] | 185
29 | CC(C)(C)c1ccc(CCN2CCc3cc(S(=O)(=O)Nc4ccc(OCCCc5ccccc5)cc4F)ccc3C2)cc1 [Working Example 8-2] | 173
30 | CC(C)(C)c1ccc(NC(=O)N2Cc3ccc(S(=O)(=O)Nc4ccc(OCCOc5ccccc5)cc4F)cc3C2)cc1 [18-18] | 136
31 | CC(C)(C)c1ccc(CCN2CCc3cc(S(=O)(=O)Nc4ccc(OCCCC5CCCCC5)cc4F)ccc3C2)cc1 [17-6] | 39
32 | O=C(OC1CCCCC1)N1CCc2cc(S(=O)(=O)Nc3ccc(CCCC4CCCC4)cc3F)ccc2C1 [26-1, Cyclohexyl 6-{[4-(3-cyclopentylpropyl)-2-fluorophenyl]sulfamoyl}-3,4-dihydroisoquinoline-2(1H)-carboxylate] | 217
33 | CC(C)(C)c1ccc(NC(=O)N2Cc3ccc(S(=O)(=O)Nc4ccc(OCCCOc5cccc(Cl)c5)cc4F)cc3C2)cc1 [18-24] | 62
34 | CC(C)(C)c1ccc(NC(=O)N2CCc3cc(S(=O)(=O)Nc4ccc(OCCC5CCOCC5)cc4F)ccc3C2)cc1 [14-35] | 178
35 | CCCCCCCc1ccc(NS(=O)(=O)c2ccc3c(c2)CCN(Cc2cnc(C(C)(C)C)s2)C3)c(F)c1 [Working Example 7-32] | 42
36 | COc1ccc(NS(=O)(=O)c2ccc3c(c2)CN(C(=O)Nc2ccc(C(C)(C)C)cc2)C3)c(F)c1 [14-16] | 164
37 | CC(C)(C)c1ccc(CN2CCc3cc(S(=O)(=O)Nc4ccc(OCCC5CCOCC5)cc4F)ccc3C2)cc1 [Working Example 6-66] | 203
38 | CC(C)(C)c1ccc(CCN2CCc3cc(S(=O)(=O)Nc4ccc(OCCC5CCCCC5)cc4F)ccc3C2)cc1 [Working Example 5-1, 2-[2-(4-tert-Butylphenyl)ethyl]-N-[4-(2-cyclohexylethoxy)-2-fluorophenyl]-1,2,3,4-tetrahydroisoquinoline-6-sulfonamide] | 76
39 | CC(C)(C)c1ccc(CCN2CCc3cc(S(=O)(=O)Nc4ccc(OCCC5CCOCC5)cc4F)ccc3C2)cc1 [17-7] | 79
40 | CCCCCCCCOc1ccc(NS(=O)(=O)c2ccc3c(c2)CN(C(=O)Nc2ccc(C(C)(C)C)cc2)C3)c(F)c1 [18-7] | 7
41 | CCCCCCCc1ccc(NS(=O)(=O)c2ccc3c(c2)CCN(Cc2ccc(C(C)(C)C)nc2)C3)c(F)c1 [Working Example 6-32] | 31
42 | CC(C)(C)c1cnc(CN2CCc3cc(S(=O)(=O)Nc4ccc(CCCC5CCCC5)cc4F)ccc3C2)cn1 [Working Example 7-60] | 233
43 | CC(C)(C)c1ccc(NC(=O)N2Cc3ccc(S(=O)(=O)Nc4ccc(OCCC5CCCCC5)cc4F)cc3C2)cc1 [18-11] | 29
44 | CC(C)(C)c1ncc(CN2CCc3cc(S(=O)(=O)Nc4ccc(CCCC5CCCC5)cc4F)ccc3C2)s1 [Working Example 6-48] | 49
45 | CCCCCCCc1ccc(NS(=O)(=O)c2ccc3c(c2)CCN(Cc2ccc(C(F)(F)F)nc2)C3)c(F)c1 [Working Example 7-29] | 134
46 | CCCCCCOc1ccc(NS(=O)(=O)c2ccc3c(c2)CCN(Cc2ccc(C(C)(C)C)nc2)C3)c(F)c1 [Working Example 6-27] | 135
47 | CC(c1ccc(C(C)(C)C)nc1)N1CCc2cc(S(=O)(=O)Nc3ccc(CCCC4CCCC4)cc3F)ccc2C1 (stereo not drawn) [23-1, 2-[1-(6-tert-Butylpyridin-3-yl)ethyl]-N-[4-(3-cyclopentylpropyl)-2-fluorophenyl]-1,2,3,4-tetrahydroisoquinoline-6-sulfonamide] | 13
48 | CC(C)(C)c1ccc(NC(=O)N2Cc3ccc(S(=O)(=O)Nc4ccc(OCCc5ccccc5)cc4F)cc3C2)cc1 [18-14] | 127
